Laboratory results taken from patent US20050048127A1, “Small spherical particles of low molecular weight organic molecules and methods of preparation and use thereof” (priority 2003, published 2005).

Experiments:
[1] = Formation of small spherical particles from first/second solvent mixtures on glass slide under nitrogen flow, graded by polarized light microscope; assay type: physicochemical; parameters: key: (+) = predominantly small spherical particles; (+/−) = a mixture of small spherical particles and non-spherical particles; (−) = predominantly non-spherical particles; ppt = the steroid precipitated out during addition of the second solvent
Text: The ability to form small spherical particles of two steroids, beclomethasone dipropionate (BDP) and fluticasone propionate (FP) was examined in matrix experiments using acetone, ethanol, methanol, and methyl ethyl ketone (MEK) individually as the first solvents and water and heptane individually as the second solvents. The amount of second solvent added to the first solvent/steroid solution was varied as 0%, 10%, 20%, 30%, and 40% (v/v). MEK is not miscible with water and methanol is not miscible with heptane, so those combinations were not included in the experiment.
Either BDP or FP was weighed into a large screw cap glass tube and the solvent of choice was added (w/v) to yield a final concentration of 2 mg/mL. The tubes were vortexed and sonicated to completely dissolve the steroid. The sealed tubes containing these solutions were used as stock solutions for subsequent mixture with the appropriate second solvent. Immediately prior to use, an appropriate amount of the second solvent was slowly added to the first solvent/steroid solution while mixing to avoid premature precipitation. After adding the second solvent, the solutions were visually examined to ensure that premature precipitation had not occurred.
A fixture was constructed such that a 0.125-inch diameter orifice nozzle was positioned 1.75 inches above a standard glass microscope slide. Nitrogen gas was allowed to flow at 5 liters per minute through the nozzle and over the slide such that the flow direction of the gas was perpendicular to the surface of the slide. One or two drops of the test solution were placed on the slide directly under the orifice, and the nitrogen flow continued until the slide was dry (one to three minutes depending on the solution composition). Each slide was then examined under a polarized light microscope (Leica EPISTAR, Buffalo, N.Y.) using incident lighting. Each slide was graded for the presence of predominantly small spherical particles (+), a mixture of small spherical particles and non-spherical particles (+/−), and predominantly non-spherical particles (−). Variations in size and size distribution were observed between different test solutions.

[2] = Particle morphology and size by scanning electron microscopy (SEM); assay type: physicochemical; conditions: broad distribution, some particles larger than upper value
Experimental: Particle morphology for the following examples was obtained using Scanning Electron Microscopy (SEM, FEI Quanta 200, Hilsboro, Oreg.). The sample was prepared for analysis by placing a small amount on carbon double-stick tape fixed to an aluminum sample mount. The sample was then sputter-coated using a Cressington sputter coater 108 Auto for 90 seconds and 20 mA. A second SEM instrument (Amray 1000, Bedford, Mass.) was used to obtain additional images of the small spherical particles, due to its higher resolution capabilities. Particle morphology for the following examples was obtained using Scanning Electron Microscopy (FEI Quanta 200, Hilsboro, Oreg.). FIG. 4 presents SEM of micronized budesonide starting material and FIG. 5 presents SEM of the resulting budesonide small spherical particles.

[3] = first solvent MEK, 0% second solvent (2 mg/mL stock solution)
[4] = first solvent acetone, 0% second solvent (2 mg/mL stock solution)
[5] = first solvent acetone, 10% heptane
[6] = first solvent acetone, 10% water
[7] = first solvent acetone, 20% heptane
[8] = first solvent acetone, 20% water
[9] = first solvent acetone, 30% heptane
[10] = first solvent acetone, 30% water
[11] = first solvent acetone, 40% heptane
[12] = first solvent acetone, 40% water
[13] = first solvent ethanol, 0% second solvent (2 mg/mL stock solution)
[14] = first solvent ethanol, 10% heptane
[15] = first solvent ethanol, 10% water
[16] = first solvent ethanol, 20% heptane
[17] = first solvent ethanol, 20% water
[18] = first solvent ethanol, 30% heptane
[19] = first solvent ethanol, 30% water
[20] = first solvent ethanol, 40% heptane
[21] = first solvent ethanol, 40% water
[22] = first solvent methanol, 0% second solvent (2 mg/mL stock solution)
[23] = first solvent methanol, 10% water
[24] = first solvent methanol, 20% water
[25] = first solvent methanol, 30% water
[26] = first solvent methanol, 40% water

Row | SMILES | Formation of small spherical particles [1, 3] | Formation of small spherical particles ([1]; first solvent MEK, 10% heptane) | Formation of small spherical particles ([1]; first solvent MEK, 20% heptane) | Formation of small spherical particles ([1]; first solvent MEK, 30% heptane) | Formation of small spherical particles ([1]; first solvent MEK, 40% heptane) | Formation of small spherical particles [1, 4] | Formation of small spherical particles [1, 5] | Formation of small spherical particles [1, 6] | Formation of small spherical particles [1, 7] | Formation of small spherical particles [1, 8] | Formation of small spherical particles [1, 9] | Formation of small spherical particles [1, 10] | Formation of small spherical particles [1, 11] | Formation of small spherical particles [1, 12] | Formation of small spherical particles [1, 13] | Formation of small spherical particles [1, 14] | Formation of small spherical particles [1, 15] | Formation of small spherical particles [1, 16] | Formation of small spherical particles [1, 17] | Formation of small spherical particles [1, 18] | further results
1 | CCC(=O)OCC(=O)[C@@]1(OC(=O)CC)[C@@H](C)C[C@H]2[C@@H]3CCC4=CC(=O)C=C[C@]4(C)[C@@]3(Cl)[C@@H](O)C[C@@]21C [Beclomethasone dipropionate] | +/− | + | + | + | + | + | + | + | + | + | +/− | + | +/− | + | + | + | + | +/− | + | +/− | Formation of small spherical particles [1, 19]: +; Formation of small spherical particles [1, 20]: +/−; Formation of small spherical particles [1, 21]: +; Formation of small spherical particles [1, 22]: +; Formation of small spherical particles [1, 23]: +; Formation of small spherical particles [1, 24]: +; Formation of small spherical particles [1, 25]: +; Formation of small spherical particles [1, 26]: +
2 | CCC(=O)O[C@]1(C(=O)SCF)[C@H](C)C[C@H]2[C@@H]3C[C@H](F)C4=CC(=O)C=C[C@]4(C)[C@@]3(F)[C@@H](O)C[C@@]21C [Fluticasone propionate] | +/− | − | − | − | − | + | + | + | + | +/− | +/− | − | +/− | − | +/− | − | +/− | − | +/− | − | Formation of small spherical particles [1, 19]: −; Formation of small spherical particles [1, 20]: −; Formation of small spherical particles [1, 21]: −; Formation of small spherical particles [1, 22]: −; Formation of small spherical particles [1, 23]: −; Formation of small spherical particles [1, 24]: ppt; Formation of small spherical particles [1, 25]: ppt; Formation of small spherical particles [1, 26]: ppt
3 | CCC(=O)OCC(=O)[C@@]1(OC(=O)CC)[C@@H](C)C[C@H]2[C@@H]3CCC4=CC(=O)C=C[C@]4(C)[C@@]3(Cl)[C@@H](O)C[C@@]21C [micronized BDP starting material, beclomethasone dipropionate] |  |  |  |  |  |  |  |  |  |  |  |  |  |  |  |  |  |  |  |  | particle size distribution [2]: 5-50 microns
